In patent US7109043B2, “Fluorescent probe for magnesium ion determination” (Japan Science and Technology Corporation, priority 2000, dated 2006):
“Also recorded” adds a separate entry of the source. Where two headings read alike, the source gives them in different places.

What was measured:
[1] = system: bovine vascular endothelial cells; assay: Measurement of magnesium ions in cells using fluorescent probe (No. 1), fluorescence microscopy; assay type: cell-based
Description: Magnesium ions in cells were measured using the fluorescent probe KMG-20 synthesized in Example 1. Since the fluorescent probe KMG-20 has an acetoxymethyl group, it has a high lipid solubility and is easy to transfer from the culture medium to the cell membrane. In the vicinity of the cell membrane, the acetoxymethyl group is removed by an ester hydrolysis enzyme in the cell and becomes again a water-soluble compound having a carboxyl group, so that it is diffused into the cytoplasm. Upon forming a complex with a magnesium ion, the fluorescence of KMG-20 is increased.
A solution of the fluorescent probe KMG-20 in DMSO (1.0 ml) was added to Hanks-HEPES buffer so as to attain a final concentration of 10.0 μM, and the mixture was subjected to ultrasonication. The culture medium in which bovine vascular endothelial cells had been cultured at 37° C. on a petri dish was replaced with the above-described KMG-20 solution, and the cells were incubated at 37° C. for 30 minutes. […] The excitation wavelength was 440 nm and the detection wavelength was 500–530 nm. For comparison, the cells before the treatment with the fluorescence probe were also observed with the fluorescence microscope.
(§1) To clarify the behavior of free magnesium ions in the cells, 5 μM carbonylcyanoid p-(trifluoromethoxy)phenylhydrazone (FCCP) was added. As a result, the entire cell was brightened. The change in the fluorescence intensity with time after the addition of FCCP was observed. […] It is known that magnesium ion usually binds to an oxygen atom in the phosphoric acid ester moiety of a phosphorylated substrate such as ATP, ADP, phosphorylated saccharide, nucleic acid or the like to neutralize the electric charge thereof, and serves as an acid catalyst, and that enzymes whose corresponding substrates are phosphoric acid ester compounds require magnesium ion as a co-factor. Since FCCP serves as a respiration inhibitor of mitochondria in the cells, the ATP activity in the cells is decreased and so the free magnesium ion level is increased, it is thought that KMG-20 formed a complex with magnesium ion, thereby increasing the fluorescence intensity.
(§2) Further, 10 μM acetylcholine was added to the cells so as to compulsively increase the calcium level in the cells.

[2] = Binding constant to calcium ion by fluorescence titration (Benesi-Hildebrand plot); conditions: probe 10 μM in HEPES 10.0 mM, KCl 120.0 mM, NaCl 20.0 mM, EGTA 2.0 mM, pH 7.20; excitation 448 nm, fluorescence 505 nm
Description: (§3) Selectivities to magnesium ion (i.e., the ratio of binding constant to magnesium ion to the binding constant to calcium ion) of KMG-20 synthesized in Example 1 and KMG-27 synthesized in Example 4 were measured. More particularly, this measurement was carried out as follows:
(§4) The fluorescent indicator was dissolved in a solvent (HEPES 10.0 mM, KCl 120.0 mM, NaCl 20.0 mM, EGTA 2.0 mM, pH 7.20) to a concentration of 10 μM. To this solution, a metal salt solution (MgCl2, CaCl2) in the above-described solvent was added to a concentration of 0 to 500 mM, and fluorescence spectrum was measured.
(§5) The conditions of the fluorophotometer (Hitachi F4500) were as follows: excitation wavelength: 448 nm, slit width: excitation side: 2.5 nm, fluorescence side 2.5 nm, photomultiplier voltage: 700V, scanning rate: 240 nm/min.
The fluorescence intensities at the maximum fluorescence wavelength (505 nm) when the concentration of the metal ion was changed were measured, and the binding constants to Mg^2+ and Ca^2+ were calculated by using Benesi-Hildebrand plot method (J. Am. Chem. Soc. 71, 2703 (1949)). […]

[3] = Binding constant to magnesium ion by fluorescence titration (Benesi-Hildebrand plot); conditions: for KMg (binding constant to Mg^2+): probe 10 μM in HEPES 10.0 mM, KCl 120.0 mM, NaCl 20.0 mM, EGTA 2.0 mM, pH 7.20, excitation 448 nm, fluorescence 505 nm; for KMg/KCa (selectivity to magnesium ion): ratio of binding constant to magnesium ion to binding constant to calcium ion
Description: as §3, §4, §5
The fluorescence intensities at the maximum fluorescence wavelength (505 nm) when the concentration of the metal ion was changed were measured, and the binding constants to Mg^2+ and Ca^2+ were calculated by using Benesi-Hildebrand plot method (J. Am. Chem. Soc. 71, 2703 (1949)).
For comparison, the binding constants of known magnesium probes commercially available from Molecular Probes, that is, mag-fura-2 (Proc. Natl. Acad. Sci. USA, 86, 2981 (1989)), mag-indo-1(J. Physiol, 475, 319 (1994)), mag-fura-5 (J. Physiol, 475, 319 (1994)) and Magnesium Green (J. Biol. Chem. 270, 18975 (1995)) are also shown in Table 1.

PC-12 cells = assay: Measurement of magnesium ions in cells using fluorescent probe (No. 2), fluorescence microscopy; assay type: cell-based, rat; conditions: for Change in fluorescence intensity after addition of FCCP: 5.0 μM FCCP (raises free magnesium ion level); for Staining / dispersion of the probe in cells: excitation 440 nm, detection 500–530 nm
Description: Behavior of magnesium ions in cells were measured using the fluorescent probe synthesized in Example 4.
Since this fluorescent probe KMG-20 has an acetoxymethyl group, it has a high lipid solubility and is easy to transfer from the culture medium to the cell membrane. In the vicinity of the cell membrane, the acetoxymethyl group is removed by an ester hydrolysis enzyme in the cell and becomes again a water-soluble compound having a carboxyl group, so that it is diffused into the cytoplasm.
A solution of the fluorescent probe in DMSO (1.0 ml) was added to Hanks-HEPES buffer so as to attain a final concentration of 10.0 μM, and the mixture was subjected to ultrasonication. The culture medium in which PC-12 cells (cloned nerve cells isolated from rat adrenal medulla chrome-philic cytoma) had been cultured at 37° C. on a petri dish was replaced with the fluorescent probe solution, and the cells were incubated at 37° C. for 30 minutes. […] The excitation wavelength was 440 nm and the detection wavelength was 500–530 nm. For comparison, the cells before the treatment with the fluorescence probe were also observed with the fluorescence microscope.
as §1, with “5.0” for “5”, “the fluorescent probe” for “KMG-20”
as §2

[4] = known commercial magnesium probes, literature values for comparison; cited from earlier work
[5] = known commercial magnesium probes, literature values for comparison; cited from earlier work; remark: listed apart in the source
[6] = 10 μM acetylcholine (increases calcium level in the cells)
[7] = 10.0 μM probe, 37° C. 30 minutes, fluorescence microscope

CC(=O)OCOC(=O)c1cc2cc3c4c(c2oc1=O)CCCN4CCC3 [KMG-20, (13-aza-3-oxa-4-oxotetracyclo[7.7.1.0<2,7>.0<13,17>]heptadeca-1(17),2(7),5,8-tetraene-5-ylcarbonyloxy)methyl acetate]
Change in fluorescence intensity after addition of FCCP ([1]; 5 μM FCCP (raises free magnesium ion level)): fluorescence intensity was increased during 1 minute from the addition of FCCP | Change in fluorescence intensity after addition of acetylcholine [1, 6]: increase of the fluorescence intensity was not observed | Staining / dispersion of the probe in cells ([1]; 10.0 μM probe, 37° C. 30 minutes, excitation 440 nm, detection 500–530 nm): uniformly dispersed and stained the cells; also recorded: uniformly dispersed in the cytoplasm | Location of the probe in the cell [1, 7]: located in the vicinity of the nucleus | KCa (binding constant to Ca^2+) [2]: 33.3 M⁻¹ | KMg (binding constant to Mg^2+) [3]: 100.0 M⁻¹ | KMg/KCa (selectivity to magnesium ion) [3]: 3.0

COC(=O)c1cc2cc3c4c(c2oc1=O)C(C)(C)CCN4CCC3(C)C [KMG-27, methyl-13-aza-10,10,16,16-tetramethyl-3-oxa-4-oxo-tetracyclo[7,7,1,0<2,7>.O<13,17>]heptadeca-1(17),2(7),5,8-tetraene-5-carboxylate]
Change in fluorescence intensity after addition of FCCP (PC-12 cells): increase in the fluorescent intensity was observed | Change in fluorescence intensity after addition of FCCP (PC-12 cells; listed as Example 4): fluorescence intensity was increased during 1 minute from the addition of FCCP | Change in fluorescence intensity after addition of acetylcholine (PC-12 cells; [6]): increase of the fluorescence intensity was not observed | Staining / dispersion of the probe in cells (PC-12 cells; 10.0 μM probe, 37° C. 30 minutes): uniformly dispersed in the cells | Staining / dispersion of the probe in cells (PC-12 cells; 10.0 μM probe, 37° C. 30 minutes, listed as Example 4): uniformly dispersed and stained the cells | Location of the probe in the cell (PC-12 cells; [7]): located in the vicinity of the nucleus | KCa (binding constant to Ca^2+) [2]: 33.0 M⁻¹ | KMg (binding constant to Mg^2+) [3]: 102.0 M⁻¹ | KMg/KCa (selectivity to magnesium ion) [3]: 3.09

O=C([O-])COc1cc(NC(=O)c2ccc3c(c2)C(=O)OC32c3cc(Cl)c([O-])cc3Oc3cc([O-])c(Cl)cc32)ccc1N(CC(=O)[O-])CC(=O)[O-].[K+].[K+].[K+].[K+].[K+] [Magnesium Green]
KMg (binding constant to Mg^2+) [4]: 500.0 M⁻¹ | KCa (binding constant to Ca^2+) [5]: 166,660 M^−1 | KMg/KCa (selectivity to magnesium ion) [3]: 0.003

O=C(O)COc1cc2cc(-c3ncc(C(=O)O)o3)oc2cc1N(CC(=O)O)CC(=O)O [mag-fura-2]
KMg (binding constant to Mg^2+) [4]: 526.3 M⁻¹ | KCa (binding constant to Ca^2+) [5]: 40,000 M^−1 | KMg/KCa (selectivity to magnesium ion) [3]: 0.013

O=C(O)COc1cc(-c2cc3ccc(C(=O)O)cc3[nH]2)ccc1N(CC(=O)O)CC(=O)O [mag-indo-1]
KMg (binding constant to Mg^2+) [4]: 370.4 M⁻¹ | KCa (binding constant to Ca^2+) [5]: 28,570 M^−1 | KMg/KCa (selectivity to magnesium ion) [3]: 0.013
